Source: patent US9783490B2, “Antimicrobial compounds, their synthesis and applications thereof” (The Secretary of State for Health, priority 2012, dated 2017)
Read-outs that look alike come from different tables or passages of the source.

Assays:
[1] = test system: E. coli (MTCC 443); test: Minimum Inhibitory Concentration, micro-dilution broth; assay type: cell-based, Escherichia coli; settings: for Minimum Inhibitory Concentration E. coli: Drug sensitive bacteria
Protocol: (§1) Microorganisms and Culture Conditions: Bacterial strains, S. aureus (MTCC 737) and E. coli (MTCC 443) are purchased from MTCC (Chandigarh, India). MRSA (ATCC 33591), Pseudomonas aeruginosa (ATCC 4676), […]-lactamase producing and drug-resistant Klebsiella pneumonia (ATCC700603), Enterococcus faecium (ATCC 19634) and vancomycin resistant Enterococcus faecium (ATCC 51559) are obtained from ATCC (Rockville, Md., USA).
(§2) E. coli is cultured in Luria Bertani broth (10 g of tryptone, 5 g of yeast extract, and 10 g of NaCl in 1000 mL of sterile distilled water (pH −7) while S. aureus, Pseudomonas aeruginosa (ATCC 4676) and MRSA are grown in Yeast-dextrose broth (1 g of beef extract, 2 g of yeast extract, 5 g of peptone and 5 g of NaCl in 1000 mL of sterile distilled water). For all Enterococcus faecium, Brain Heart Infusion broth (BHI) is used. For solid media 5% agar was used along with above mentioned composition. K. pneumonia was grown in nutrient media (3 g of beef extract and 5 g of peptone in 1000 mL of sterile distilled water). The bacterial samples were freeze dried and stored at −80° C. 5 μl of these stocks were added to 3 mL of the nutrient broth and the culture was grown for 6 h at 37° C. prior to the experiments.
(§3) Antibacterial activity is reported as Minimum Inhibitory Concentration (MIC), i.e. the lowest concentration of the antimicrobial agent that will inhibit the growth of a microorganism after overnight incubation. Water-soluble ACK, NCK and BCK series of compounds are assayed in a modified micro-dilution broth format. Stock solutions are made by serially diluting the compounds using autoclaved Millipore water. Bacteria, to be tested are grown for about 6 hrs in the suitable media containing ˜10^9 cfu/mL (determined through dilution plate technique by spread plate method), which is then diluted to 10^5 cfu/mL using nutrient media. 50 μL of serially diluted compound is added to a 96 well plate containing 150 μL bacterial solutions. Two controls are made; one containing 150 μL of media and 50 μL of compound and the other containing 200 μL of bacterial solution. […] MIC value is determined by taking the average of triplicate O.D. values for each concentration and plotting it against concentration using Origin Pro 8.0 software. The data is then subjected to sigmoidal fitting. From the curve, MIC value is determined, as the point in the curve where the O.D. is similar to that of control having no bacteria. The MIC values and errors of independent experiments are reported as average and standard deviation of triplicates.

[2] = test system: MRSA (ATCC 33591); test: as above; assay type: cell-based, Methicillin resistant S. aureus; settings: for Minimum Inhibitory Concentration MRSA: Drug resistant bacteria
Protocol: as §1, §2, §3

[3] = test system: bacteria; test: Minimum inhibitory concentration, bacterium not given; assay type: cell-based
Protocol: as §3

[4] = test system: S. aureus (MTCC 737); test: Minimum Inhibitory Concentration, micro-dilution broth; assay type: cell-based, Staphylococcus aureus; settings: for Minimum Inhibitory Concentration S. aureus: Drug sensitive bacteria
Protocol: as §1, §2, §3

[5] = test system: human RBCs; test: Haemolytic activity (HC50); assay type: cell-based
Protocol: Erythrocytes are isolated from freshly drawn, heparinized human blood and re-suspended to 5 vol % in PBS (pH 7.4). In a 96-well microtiter plate, 150 μl of erythrocyte suspension is added to 50 μl of serially diluted compound. Two controls are made, one without compound and other with 50 μl of 1 vol % solution of Triton X-100. The plate is incubated for about 1 hr at a temperature of about 37° C. The plate is then centrifuged at 3,500 rpm for about 5 min, 100 μl of the supernatant from each well is transferred to a fresh microtiter plate, and absorbance at 540 nm is measured. Percentage of hemolysis is determined as (A−A0)/(Atotal−A0)×100, where A is the absorbance of the test well, A0 the absorbance of the negative controls (without compound), and A total the absorbance of 100% hemolysis wells (with Triton X-100), when absorbance is read at 540 nm.
Toxicity studies of the compounds are carried out on freshly drawn human RBCs. Toxicity of the antimicrobial compounds of the present disclosure is defined by their HC50 values illustrated in Table 3, i.e. the concentration of compound at which 50% of the blood cells are lysed. Haemolytic studies conducted herein illustrates that the antimicrobial compounds provided by the instant disclosure are selective towards drug sensitive bacteria and drug resistant bacteria over human RBCs, thus establishing the non-toxicity of the present compounds.

[6] = test system: Enterococcus faecium (ATCC 19634); test: Minimum Inhibitory Concentration, micro-dilution broth; assay type: cell-based; settings: for Minimum Inhibitory Concentration E. faecium: Drug sensitive bacteria
Protocol: as §1, §2, §3

[7] = test system: vancomycin resistant Enterococcus faecium (ATCC 51559); test: as above; assay type: cell-based; settings: for Minimum Inhibitory Concentration VRE: Drug resistant bacteria
Protocol: as §1, §2, §3

[8] = test system: Pseudomonas aeruginosa (ATCC 4676); test: as above; assay type: cell-based; settings: for Minimum Inhibitory Concentration P. aeruginosa: Drug sensitive bacteria
Protocol: as §1, §2, §3

[9] = test system: drug-resistant Klebsiella pneumonia (ATCC700603); test: as above; assay type: cell-based; settings: for Minimum Inhibitory Concentration K. pneumonia: Drug resistant bacteria
Protocol: as §1, §2, §3

[10] = concentration at which 50% of the blood cells are lysed, human RBCs

| Compound | Minimum Inhibitory Concentration E. coli [1] [µg/mL] | MIC value against methicillin-resistant S. aureus [2] | Minimum Inhibitory Concentration MRSA [2] [µg/mL] | active concentration against all bacteria [3] | Minimum Inhibitory Concentration S. aureus [4] [µg/mL] | HC50 [5] [µg/mL] | HC50 values [5] [µg/mL] | MIC value against E. faecium [6] | Minimum Inhibitory Concentration E. faecium [6] [µg/mL] | Minimum Inhibitory Concentration VRE [7] [µg/mL] | Minimum Inhibitory Concentration P. aeruginosa [8] [µg/mL] | Minimum Inhibitory Concentration K. pneumonia [9] [µg/mL] | HC50 [5, 10] [µg/mL] | MIC value against E. coli [1] | MIC value against S. aureus [4] | MIC value against vancomycin-resistant E. faecium [7] | MIC value against P. aeruginosa [8] | MIC value against K. pneumonia [9] |
| --- | --- | --- | --- | --- | --- | --- | --- | --- | --- | --- | --- | --- | --- | --- | --- | --- | --- | --- |
| Lys-N-octylaminodecane [Dec-CK-8] | 3.1 | 3 µg/mL | 3 | below 5.6 μg/ml | 3.1 | 82 | 82 | 3 µg/mL | 3 | 3.3 | 4.2 | 5.6 |  |  |  |  |  |  |
| CCCCN(Cc1cccc2ccccc12)C(=O)C(N)CCCCN.O=C(O)C(F)(F)F (stereo not shown) [NCK-4, Lys-N-butyl-1-Aminomethylnaphthalene trifluoroacetate] | >100 |  | >100 |  | >100 |  |  |  | >100 | >100 | >100 | >100 | >1000 |  |  |  |  |  |
| CCCCCCCCCCCCCCN(Cc1ccccc1)C(=O)C(N)CCCCN.O=C(O)C(F)(F)F (stereo not shown) [BCK-14, Lys-N-tetradecyl-1-Aminomethylbenzene trifluoroacetates] | 3.1 | ~2.5 µg/mL | 2.5 |  | 3.1 |  |  | ~2 µg/mL | 2 | 2.5 | 2.8 | 4 | 50 | ~3.1 µg/mL | ~3.1 µg/mL | ~2.5 µg/mL | ~2.8 µg/mL | ~4 µg/mL |
| CCCCCCCCN(Cc1c2ccccc2c(Cl)c2ccccc12)C(=O)[C@@H](N)CCCCN.O=C(O)C(F)(F)F [ACK-8, Lys-N-octyl-10-Aminomethyl-9-chloroanthracene trifluoroacetate] | 2.9 | ~2.3 µg/mL | 2.3 |  | 2.2 |  |  | ~2.5 µg/mL | 2.5 | 3 | 3.8 | 4.3 | 64 | ~2.9 µg/mL | ~2.2 µg/mL | ~3 µg/mL | ~3.8 µg/mL | ~4.3 µg/mL |
| CCCCCCCCCCN(Cc1ccccc1)C(=O)[C@@H](N)CCCCN.O=C(O)C(F)(F)F [BCK-10, Lys-N-decyl-1-Aminomethylbenzene trifluoroacetates] | 6.5 | about 15.7 μg/ml | 15.7 |  | 5.7 |  |  | about 6.5 μg/ml | 6.5 | 5.8 | 4 | 31 | 95 | about 6.5 μg/ml | about 5.7 μg/ml | about 5.8 μg/ml | about 4 μg/ml | about 31 μg/ml |
| CCCCCCN(Cc1cccc2ccccc12)C(=O)[C@@H](N)CCCCN.O=C(O)C(F)(F)F [NCK-6, Lys-N-hexyl-1-Aminomethylnaphthalene trifluoroacetate] | 25 |  | 65 |  | 20 |  |  |  | 34 | 54 | 11 | 100 | 508 |  |  |  | about 11 μg/ml |  |
| CCCCCCCCN(Cc1ccccc1)C(=O)C(N)CCCCN.O=C(O)C(F)(F)F (stereo not shown) [BCK-8, Lys-N-octyl-1-Aminomethylbenzene trifluoroacetates] | 51 |  | >100 |  | 46 |  |  |  | 60 | >100 | 60 | >100 | 325 |  |  |  |  |  |
| CCCCCCCCCCN(Cc1cccc2ccccc12)C(=O)[C@@H](N)CCCCN.O=C(O)C(F)(F)F [NCK-10, Lys-N-decyl-1-Aminomethylnaphthalene trifluoroacetate] | 4 | ~2.6 µg/mL | 2.6 |  | 2.5 |  |  | ~3.5 µg/mL | 3.5 | 1.6 | 3 | 5.8 | 54 | ~4 µg/mL | ~2.5 µg/mL | ~1.6 µg/mL | ~3 µg/mL | ~5.8 µg/mL |
| CCCCCCCCCCCCN(Cc1cccc2ccccc12)C(=O)[C@@H](N)CCCCN.O=C(O)C(F)(F)F [NCK-12, Lys-N-dodecyl-1-Aminomethylnaphthalene trifluoroacetate] | 3.1 | ~2.7 µg/mL | 2.7 |  | 3 |  |  | ~1.6 µg/mL | 1.6 | 3.4 | 3.2 | 4 | 56 | ~3.1 µg/mL | ~3 µg/mL | ~3.4 µg/mL | ~3.2 µg/mL | ~4 µg/mL |
